Results from patent US10821120B2, “Method for controlling neuroinflammation” (N.V. NUTRICIA, priority 2016, dated 2020).

Legend:
[1] = system: LPS-stimulated BV-2 cells; test: Griess assay (nitric oxide release) from LPS-activated BV-2 microglia; assay type: cell-based, mouse; details: vitamin D 1 μg/ml, DHA 20 μM; for effect on LPS-induced NO release (in words): Example 1 concentrations: vitamin B6 29 μM, folic acid 24 μM, vitamin B12 0.2 μM, vitamin A 1.75 μM, versus LPS control; for NO release as percentage of the NO released by cells stimulated only with LPS: Example 1, high non-toxic concentrations: vitamin A 1.75 μM, EPA 20 μM, 24 h pretreatment, then 24 h with LPS 50 ng/ml plus same nutrients, LPS control = 100%
Description: (§1) BV-2 cell cultures: BV-2 cells were obtained from IRCCS (Azienda Ospedaliera Universitaria San Martino—IST Istituto Nazionale per la Ricerca sul Cancro, Genova, Italy). BV-2 cell lines are immortalized cell lines derived from C57bl/6 mouse. These are considered to closely resemble the physiology of primary microglia cells and form a well-established model for investigation in vitro (Henn et al., ALTEX, 2009, 26, 83-94). Lipopolysaccharide (LPS), an endotoxin derived from the cell wall of gram negative bacteria, is the most widely used agent to activate immune cells. Cells were cultured in Dulbecco's Modified Eagle Medium (DMEM, Gibco) supplemented with 10% of heat-inactivated fetal bovine serum (Invitrogen), 10,000 units/ml penicillin (Gibco), 10,000 μg/ml streptomycin (Gibco) and 200 mM L-glutamine (Gibco) and maintained at 37° C. and 5% CO2. Twenty-four hours before the experiment, cells were plated on 96 well plates (Corning) at a cell density of approximately 20,000 cells/well and maintained in DMEM supplemented with 2% fetal bovine serum, 10,000 units/ml penicillin, 10,000 μg/ml streptomycin and 200 mM L-glutamine, for the duration of the experiment.
(§2) Cell viability: Cell proliferation and viability were assessed with 2,3-bis(2-methoxy-4-nitro-5-sulfophenyl)-2H-tetrazolium-5-carboxanilide inner salt (XTT, Sigma) at a concentration of 1 mg/ml. Phenazine methosulfate (PMS, Sigma) at a concentration of 200 mg/ml was added as an electron coupling reagent. The XTT/PMS solution in sterile water (100 μl) was added to each well. After 2 h, the absorbance was measured at 450 nm (and 690 nm as a reference). The absorbance was corrected for the number of cells. The viability test was repeated for each experiment as a within plate control.
Griess assay (nitric oxide release): Cells were treated for 24 h with different combinations of nutrients. This treatment was followed by exchanging the medium for fresh medium with LPS (50 ng/ml) combined with the same nutrients. After incubation for 24 h, media were collected for measurement of NO release. The stable product of NO released by the BV-2 cells is NO2^−. The concentration of NO2^− was measured with a Griess assay Kit (Promega) according to the manufacturer's instructions. Data were corrected for cell viability (the viability of untreated control cells represented 100% of viability). Data are represented as percentage of the NO released by cells stimulated only with LPS. To assess variability between the tests, data from the treatment with LPS alone were pooled and an average release between experiments was calculated for NO. For treatment with LPS alone, the NO release is represented as the percentage of the average release between experiments.
(§3) Statistical analysis: All experiments were performed at least in triplicate. The data are presented as dots representing means and bars representing standard error mean (SEM). Due to the small sample size, non-parametric statistical tests were used. Data were analyzed with the Kruskal-Wallis H test and if the statistical significance was reached, Mann Whithey U test with Bonferroni-Holm post-hoc correction to allow multiple comparisons was performed. A difference was considered statistically significant when the probability (p) was <0.05.
(§4) BV-2 cells were pretreated for 24 h with different nutrients: (I) vitamin A (1.75 μM); (II) vitamin D (1 μg/ml); (III) DHA (20 μM); (IV) EPA (20 μM); (V) vitamin B6 (29 μM, including 19 μM already present in the culture medium); (VI) folic acid (24 μM, including 9 μM already present in the culture medium); (VII) vitamin B12 (0.2 μM). This was followed by 24 h incubation with LPS (50 ng/ml) combined with the same nutrients. Media were collected for measurement of NO release with the Griess assay (FIG. 1A) and IL-6 release with ELISA (FIG. 1B). NO and IL-6 levels are presented as the percentage of the concentration produced by cells treated with LPS alone (LPS control, dashed line).

[2] = system: LPS-stimulated BV-2 cells; test: ELISA (IL-6) release from LPS-activated BV-2 microglia; assay type: cell-based, mouse; details: vitamin D 1 μg/ml, DHA 20 μM; for effect on LPS-induced IL-6 release (in words): Example 1 concentrations: vitamin B6 29 μM, folic acid 24 μM, vitamin B12 0.2 μM, vitamin A 1.75 μM, versus LPS control; for IL-6 release as percentage of the IL-6 released by cells stimulated only with LPS: Example 1, high non-toxic concentrations: vitamin A 1.75 μM, EPA 20 μM, 24 h pretreatment, then 24 h with LPS 50 ng/ml plus same nutrients, LPS control = 100%
Description: as §1, §2
ELISA (IL-6): Cells were treated for 24 h with different combinations of nutrients. Subsequently, the medium was removed and cells were incubated for 24 h in fresh medium with LPS (50 ng/ml) combined with the same nutrients. Media were collected for measurement of IL-6 release. Collected samples were stored at −80° C. until further analysis. The cytokine levels were assessed using ELISA MAX™ Deluxe from Biolegend according to the manufacturer's protocol. Data were corrected for cell viability. Data are represented as percentage of the IL-6 released by cells stimulated only with LPS. To assess variability between the tests, data from the treatment with LPS alone were pooled and an average release between experiments was calculated for IL-6. For LPS alone treatment the IL-6 release is represented as the percentage of the average release between experiments.
as §3
as §4, with “line). All graphs represent the results from 4 independent experiments (mean±SEM).” for “line).”

Compound | effect on LPS-induced NO release (in words) [1] | effect on LPS-induced IL-6 release (in words) [2] | NO release as percentage of the NO released by cells stimulated only with LPS [1] [%] | IL-6 release as percentage of the IL-6 released by cells stimulated only with LPS [2] [%]
Nc1nc2ncc(CNc3ccc(C(=O)N[C@@H](CCC(=O)O)C(=O)O)cc3)nc2c(=O)[nH]1 [Vitamin B9, folic acid] | did not cause any significant effect | did not cause any significant effects |  | 
N[C@@H](CS)C(=O)O [L-cysteine] | did not cause any significant effect | did not cause any significant effects |  | 
CC/C=C\C/C=C\C/C=C\C/C=C\C/C=C\C/C=C\CCC(=O)O [DHA, cis-4,7,10,13,16,19-docosahexaenoic acid] |  |  | 68 | 68
C=C1CC[C@H](O)C/C1=C/C=C1\CCC[C@]2(C)[C@@H]([C@H](C)CCCC(C)C)CC[C@@H]12 [Vitamin D, vitamin D3] |  |  | 43 | 43
vitamin B12 | did not cause any significant effect | did not cause any significant effects |  | 
CC/C=C\C/C=C\C/C=C\C/C=C\C/C=C\CCCC(=O)O [EPA, cis-5,8,11,14,17-eicosapentaenoic acid] |  |  | 80 | 70
vitamin A |  |  | 39 | 42
N[C@@H](Cc1c[nH]c2ccccc12)C(=O)O [L-tryptophan] | did not cause any significant effect | did not cause any significant effects |  | 
Cc1ncc(CO)c(CO)c1O.Cl [Vitamin B6, vitamin B6] | did not cause any significant effect | did not cause any significant effects |  | 
